This is an account of results in patent publication US6911453B2 (Aventis Pharma Deutschland GmbH, priority 2001, dated 2005).

Counter-ions that a name gives are not always drawn.

Test system in one data set: not given
Test: not given
Details: not given
Turning to `CC(=O)Nc1ccc(C2CN(C)Cc3c(Cl)cc(Cl)cc32)cc1` (stereo not shown), the melting point was 205 to 206 °C.
The same measure, in the same setting: next, `CC(=O)Nc1ccc(C2CN(C)Cc3c(Cl)cc(Cl)cc32)cc1.Cl` (stereo not shown) [Example 1a, N-[4-(6,8-Dichloro-2-methyl-1,2,3,4-tetrahydro-isoquinolin-4-yl)-phenyl]-acetamide-hydrochloride]: 125 °C (dec.); `CCNC(=O)Nc1ccc(C2CN(C)Cc3c(Cl)cc(Cl)cc32)cc1` (stereo not shown) [Example 21, 1-[4-(6,8-Dichloro-2-methyl-1,2,3,4-tetrahydro-isoquinolin-4-yl)-phenyl]-3-ethylurea]: 218 to 220 °C.
In the case of `CN1Cc2c(Cl)cc(Cl)cc2C(c2ccc(Cl)c(S(N)(=O)=O)c2)C1` (stereo not shown) [Example 99], the melting point came to 122 °C.

The target of the next data set is T1, NHE3 (Homo sapiens, UniProt P48764).
T1 sequence (P48764 1-834): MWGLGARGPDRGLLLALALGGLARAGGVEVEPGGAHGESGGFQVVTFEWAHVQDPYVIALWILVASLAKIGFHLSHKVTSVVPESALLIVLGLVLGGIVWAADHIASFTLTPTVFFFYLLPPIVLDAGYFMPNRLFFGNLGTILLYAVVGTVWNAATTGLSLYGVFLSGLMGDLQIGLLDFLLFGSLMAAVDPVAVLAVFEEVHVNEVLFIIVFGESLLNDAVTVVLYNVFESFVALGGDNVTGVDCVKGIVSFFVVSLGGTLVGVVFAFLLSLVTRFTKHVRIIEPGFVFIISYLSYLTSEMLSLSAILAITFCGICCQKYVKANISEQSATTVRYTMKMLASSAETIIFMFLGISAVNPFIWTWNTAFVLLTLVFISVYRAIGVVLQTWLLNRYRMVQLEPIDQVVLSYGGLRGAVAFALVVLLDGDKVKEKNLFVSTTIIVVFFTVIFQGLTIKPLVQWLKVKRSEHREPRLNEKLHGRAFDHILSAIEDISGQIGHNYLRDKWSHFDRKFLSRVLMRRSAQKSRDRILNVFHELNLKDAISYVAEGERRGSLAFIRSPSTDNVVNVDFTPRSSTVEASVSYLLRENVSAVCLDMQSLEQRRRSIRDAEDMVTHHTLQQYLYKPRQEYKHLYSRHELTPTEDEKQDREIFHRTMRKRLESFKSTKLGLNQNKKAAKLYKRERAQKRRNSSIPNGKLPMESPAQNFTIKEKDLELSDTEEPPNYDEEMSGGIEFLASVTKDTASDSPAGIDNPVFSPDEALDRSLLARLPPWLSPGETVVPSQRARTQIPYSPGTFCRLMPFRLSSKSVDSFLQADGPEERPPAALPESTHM
As to the kind of experiment: Recovery of intracellular pH (pHi) after acidification, BCECF fluorescence, NHE3. It is filed as cell-based. The following applies: inhibition of pH recovery after intracellular acidification; rate recorded for three minutes; BCECF-loaded cells. The protocol: In this test, the recovery in the intracellular pH (pHi) after an acidification is ascertained, which is initiated if the NHE is capable of functioning, even under bicarbonate-free conditions. For this purpose, the pHi was determined using the pH-sensitive fluorescent dye BCECF (Calbiochem, the precursor BCECF-AM is employed).
The cells were initially loaded with BCECF. The BCECF fluorescence was determined in a “Ratio Fluorescence Spectrometer” (Photon Technology International, South Brunswick, N.J., USA) at excitation wavelengths of 505 and 440 nm and an emission wavelength of 535 nm and converted into the pHi using calibration curves. The cells were incubated in NH4Cl buffer (pH 7.4) (NH4Cl buffer: 115 mM NaCl, 20 mM NH4Cl, 5 mM KCl, 1 mM CaCl2, 1 mM MgSO4, 20 mM Hepes, 5 mM glucose, 1 mg/ml BSA; a pH of 7.4 is adjusted with 1 M NaOH) even during the BCECF loading. The intracellular acidification was induced by adding 975 μl of an NH4Cl-free buffer (see below) to 25 μl aliquots of the cells incubated in NH4Cl buffer. The subsequent rate of pH recovery was recorded for two minutes with NHE1, five minutes with NHE2 and three minutes with NHE3. To calculate the inhibitory potency of the tested substances, the cells were initially investigated in buffers with which a complete or absolutely no pH recovery took place. For complete pH recovery (100%), the cells were incubated in Na^+-containing buffer (133.8 mM NaCl, 4.7 mM KCl, 1.25 mM CaCl2, 1.25 mM MgCl2, 0.97 mM Na2HPO4, 0.23 mM NaH2PO4, 5 mM Hepes, 5 mM glucose, a pH of 7.0 is adjusted with 1 M NaOH). To determine the 0% value, the cells were incubated in an Na^+-free buffer (133.8 mM choline chloride, 4.7 mM KCl, 1.25 mM CaCl2, 1.25 mM MgCl2, 0.97 mM K2HPO4, 0.23 mM KH2PO4, 5 mM Hepes, 5 mM glucose, a pH of 7.0 is adjusted with 1 M NaOH). The substances to be tested were made up in the Na^+-containing buffer. The recovery of the intracellular pH at each test concentration of a substance was expressed as a percentage of the maximum recovery. The IC50 value for the particular substance for the individual NHE subtypes was calculated from the pH recovery percentages using the Sigma-Plot program.
As for `CN1Cc2c(Cl)cc(Cl)cc2C(c2ccc(S(N)(=O)=O)cc2)C1` (single isomer, unassigned; (+)) [Example 2a, (+)-4-(6,8-Dichloro-2-methyl-1,2,3,4-tetrahydro-isoquinolin-4-yl)-benzene-sulfonamide hydrochloride], 0.082 µM corresponded to half-maximal inhibition (IC50).
On the same count and under the same terms, next, `CN1Cc2c(Cl)cc(Cl)cc2C(c2cccc(S(N)(=O)=O)c2)C1` (single isomer, unassigned; (+)) [Example 2b, (+)-3-(6,8-Dichloro-2-methyl-1,2,3,4-tetrahydro-isoquinolin-4-yl)-benzene-sulfonamide hydrochloride]: 0.026 µM.
Still for that read-out and setting: next, `CNC(=O)N(C)c1cccc(C2CN(C)Cc3c(Cl)cc(Cl)cc32)c1` (single isomer, unassigned; (+)) [Example 199]: 0.252 µM.
Same read-out and setting: under `CC(=O)Nc1ccc(C2CN(C)Cc3c(Cl)cc(Cl)cc32)cc1.Cl` (stereo not shown) [Example 1a, N-[4-(6,8-Dichloro-2-methyl-1,2,3,4-tetrahydro-isoquinolin-4-yl)-phenyl]-acetamide-hydrochloride] stands 0.075 µM; under `CN1Cc2c(Cl)cc(Cl)cc2C(c2ccc(C(=O)O)cc2)C1` (stereo not shown) [Example 6, 4-(6,8-Dichloro-2-methyl-1,2,3,4-tetrahydro-isoquinolin-4-yl)-benzoic acid], 0.67 µM.
As for `CCNC(=O)c1ccc(C2CN(C)Cc3c(Cl)cc(Cl)cc32)cc1` (stereo not shown) [Example 7, 4-(6,8-Dichloro-2-methyl-1,2,3,4-tetrahydroisoquinolin-4-yl)-N-ethyl-benzamide, Trifluoroacetate], the IC50 is 0.25 µM.
On the same count and under the same terms, under `CN1Cc2c(Cl)cc(Cl)cc2C(c2ccc(N3CCOCC3)cc2)C1` (stereo not shown) [Example 10, 6,8-Dichloro-2-methyl-4-(4-morpholin-4-yl-phenyl)-1,2,3,4-tetrahydroisoquinoline, Trifluoroacetate] stands 1 µM.
Same read-out and setting: next, `CN1Cc2c(Cl)cc(Cl)cc2C(c2ccc(N)cc2)C1` (stereo not shown) [Example 17, 4-(6,8-Dichloro-2-methyl-1,2,3,4-tetrahydro-isoquinolin-4-yl)-phenylamine, Hydrochloride]: 0.049 µM.
The same measure, in the same setting: under `CCNC(=O)Nc1ccc(C2CN(C)Cc3c(Cl)cc(Cl)cc32)cc1` (stereo not shown) [Example 21, 1-[4-(6,8-Dichloro-2-methyl-1,2,3,4-tetrahydro-isoquinolin-4-yl)-phenyl]-3-ethylurea] stands 0.814 µM; under `CC(=O)Nc1ccc(C2CN(C)Cc3c(C)cc(C)cc32)cc1` (stereo not shown) [Example 23, N-[4-(2,6,8-Trimethyl-1,2,3,4-tetrahydro-isoquinolin-4-yl)-phenyl]-acetamide], 1.51 µM; under `CC(=O)Nc1ccc(C2CN(C)Cc3c(Cl)cc(Br)cc32)cc1` (stereo not shown) [Example 24, N-[4-(6-Bromo-8-chloro-2-methyl-1,2,3,4-tetrahydro-isoquinolin-4-yl)-phenyl]-acetamide], 0.34 µM.
`CN1Cc2c(Cl)cc(Cl)cc2C(c2ccc(O)c(C(=O)O)c2)C1` (stereo not shown) [Example 29, 5-(6,8-Dichloro-2-methyl-1,2,3,4-tetrahydro-isoquinolin-4-yl)-2-hydroxy-benzoic acid] came in with an IC50 of 0.318 µM.
The same measure, in the same setting: next, `CN1Cc2c(Cl)cc(Cl)cc2C(c2ccccc2N)C1` (stereo not shown) [Example 36, 2-(6,8-Dichloro-2-methyl-1,2,3,4-tetrahydro-isoquinolin-4-yl)-phenylamine]: 0.274 µM; `CN1Cc2c(Cl)cc(Cl)cc2C(c2ccc(NS(C)(=O)=O)cc2)C1` (stereo not shown) [Example 48]: 0.349 µM; `CCC(=O)Nc1cccc(C2CN(C)Cc3c(Cl)cc(Cl)cc32)c1` (stereo not shown) [Example 51]: 0.215 µM.
Compound `CC(=O)N1CCC(C(=O)Nc2cccc(C3CN(C)Cc4c(Cl)cc(Cl)cc43)c2)CC1` (stereo not shown) [Example 60] gave an IC50 of 0.202 µM.
Still for that read-out and setting: under `CN1Cc2c(Cl)cc(Cl)cc2C(c2cccc(NS(=O)(=O)N(C)C)c2)C1` (stereo not shown) [Example 64] stands 0.507 µM.
`CNC(=S)Nc1ccccc1C1CN(C)Cc2c(Cl)cc(Cl)cc21` (stereo not shown) [Example 81, 1-[2-(6,8-Dichloro-2-methyl-1,2,3,4-tetrahydro-isoquinolin-4-yl)-phenyl]-3-methyl-thiourea, Trifluoroacetate]: half-maximal inhibition (IC50) was put at 0.73 µM.
Still for that read-out and setting: next, `CN1Cc2c(Cl)cc(Cl)cc2C(c2ccc(NS(=O)(=O)C(F)(F)F)cc2)C1` (stereo not shown) [Example 87]: 0.418 µM; `Cc1nc(S(=O)(=O)Nc2cccc(C3CN(C)Cc4c(Cl)cc(Cl)cc43)c2)cn1C` (stereo not shown) [Example 97]: 0.308 µM.
Compound `CN(C)CC(=O)Nc1ccc(C2CN(C)Cc3c(Cl)cc(Cl)cc32)cc1` (stereo not shown) [Example 113] yielded an IC50 of 0.279 µM.
Still for that read-out and setting: next, `CN1Cc2c(Cl)cc(Cl)cc2C(c2ccc(NC(=O)c3cc[nH]c3)cc2)C1` (stereo not shown) [Example 119]: 0.682 µM; `CN1Cc2c(Cl)cc(Cl)cc2C(c2cccc(NC(=O)C3CCN(S(C)(=O)=O)CC3)c2)C1` (stereo not shown) [Example 144]: 0.695 µM.
On the same count and under the same terms, under `CN1Cc2c(Cl)cc(Cl)cc2C(c2cccc(NC(=O)c3cn[nH]c3)c2)C1` (stereo not shown) [Example 146] stands 0.024 µM; under `CN1Cc2c(Cl)cc(Cl)cc2C(c2cccc(NC(=O)N3CCCCC3)c2)C1` (stereo not shown) [Example 153], 0.602 µM.
Same read-out and setting: next, `CN1Cc2c(Cl)cc(Cl)cc2C(c2ccc(NC(=O)N3CCOCC3)cc2)C1` (stereo not shown) [Example 183]: 0.597 µM.
As to `COC(=O)Nc1cccc(C2CN(C)Cc3c(Cl)cc(Cl)cc32)c1` (stereo not shown) [Example 207, [3-(6,8-Dichloro-2-methyl-1,2,3,4-tetrahydro-isoquinolin-4-yl)-phenyl]-carbamic acid methyl Ester—Hydrochloride Salt], the IC50 was determined as 0.186 µM.
